In brackets after ≈: the same amount, converted by molar mass.
Assays:
Assay type in all cases: functional
Staphylococcus aureus [1] = assay: Antibacterial activity against methicillin-resistant Staphylococcus aureus assessed growth inhibition by micro broth dilution method
Staphylococcus aureus [2] = assay: Antibacterial activity against Staphylococcus aureus assessed growth inhibition by micro broth dilution method
Staphylococcus aureus [3] = assay: Antibacterial activity against Staphylococcus aureus ATCC 25923 assessed growth inhibition by micro broth dilution method
Staphylococcus aureus [4] = assay: Antibacterial activity against Staphylococcus aureus ATCC 29213 assessed growth inhibition by micro broth dilution method
Enterococcus faecalis = assay: Antibacterial activity against Enterococcus faecalis assessed growth inhibition by micro broth dilution method
Klebsiella pneumoniae = assay: Antibacterial activity against Klebsiella pneumonia assessed growth inhibition by micro broth dilution method
Escherichia coli [5] = assay: Antibacterial activity against Escherichia coli assessed growth inhibition by micro broth dilution method
Escherichia coli [6] = assay: Antibacterial activity against Escherichia coli ATCC 25922 assessed growth inhibition by micro broth dilution method
Pseudomonas aeruginosa [7] = assay: Antibacterial activity against Pseudomonas aeruginosa assessed growth inhibition by micro broth dilution method
Pseudomonas aeruginosa [8] = assay: Antibacterial activity against Pseudomonas aeruginosa ATCC 27853 assessed growth inhibition by micro broth dilution method
Acinetobacter baumannii = assay: Antibacterial activity against Acinetobacter baumannii assessed growth inhibition by micro broth dilution method

Row | SMILES | MIC (Staphylococcus aureus [1]) [µg/mL] | MIC (Staphylococcus aureus [2]) [µg/mL] | MIC (Staphylococcus aureus [3]) [µg/mL] | MIC (Staphylococcus aureus [4]) [µg/mL] | MIC (Enterococcus faecalis) [µg/mL] | MIC (Klebsiella pneumoniae) [µg/mL] | MIC (Escherichia coli [5]) [µg/mL] | MIC (Escherichia coli [6]) [µg/mL] | MIC (Pseudomonas aeruginosa [7]) [µg/mL] | MIC (Pseudomonas aeruginosa [8]) [µg/mL] | MIC (Acinetobacter baumannii) [µg/mL]
1 | CCOC(=O)c1cn(Cc2ccccn2)c2cc([C-](C#N)C(=O)OCC)c(F)cc2c1=O.[Na+] (centres undefined) | 256 | 256 | 256 | 256 | 256 | 256 | 256 | 128 | 128 | 128 | 256
2 | CCOC(=O)c1cn(Cc2ccc(C)cc2)c2cc(F)c(F)cc2c1=O | 256 (≈ 716 µM) | 64 (≈ 179 µM) | 64 (≈ 179 µM) | 128 (≈ 358 µM) | 64 (≈ 179 µM) | 128 (≈ 358 µM) | 1 (≈ 2.8 µM) | 128 (≈ 358 µM) | 128 (≈ 358 µM) | 256 (≈ 716 µM) | 2 (≈ 5.6 µM)
3 | CCOC(=O)c1cn(CC)c2cc(F)c(F)cc2c1=O | 256 (≈ 910 µM) | 32 (≈ 114 µM) | 256 (≈ 910 µM) | 128 (≈ 455 µM) | 128 (≈ 455 µM) | 64 (≈ 228 µM) | 16 (≈ 56.9 µM) | 64 (≈ 228 µM) | 64 (≈ 228 µM) | 256 (≈ 910 µM) | 256 (≈ 910 µM)
4 | CCCCn1cc(C(=O)OCC)c(=O)c2cc(F)c(F)cc21 | 256 (≈ 828 µM) | 32 (≈ 103 µM) | 128 (≈ 414 µM) | 128 (≈ 414 µM) | 64 (≈ 207 µM) | 64 (≈ 207 µM) | 16 (≈ 51.7 µM) | 128 (≈ 414 µM) | 64 (≈ 207 µM) | 256 (≈ 828 µM) | 128 (≈ 414 µM)
5 | NC1CCN(c2c(F)cc3c(=O)c(C(=O)O)cn(C4CC4)c3c2Cl)C1 (centres undefined) [CLINAFLOXACIN] | 1 (≈ 2.73 µM) | 0.5 (≈ 1.37 µM) | 0.5 (≈ 1.37 µM) | 0.5 (≈ 1.37 µM) | 4 (≈ 10.9 µM) | 0.5 (≈ 1.37 µM) | 0.25 (≈ 0.683 µM) | 0.25 (≈ 0.683 µM) | 0.5 (≈ 1.37 µM) | 0.5 (≈ 1.37 µM) | 0.5 (≈ 1.37 µM)
6 | C=CCn1cc(C(=O)OCC)c(=O)c2cc(F)c([C-](C#N)C(=O)OCC)cc21.[Na+] (centres undefined) | 128 | 128 | 2 | 32 | 64 | 32 | 32 | 16 | 16 | 16 | 16
7 | CCOC(=O)c1cn(Cc2ccc([N+](=O)[O-])cc2)c2cc(F)c(F)cc2c1=O | 256 (≈ 659 µM) | 128 (≈ 330 µM) | 256 (≈ 659 µM) | 256 (≈ 659 µM) | 256 (≈ 659 µM) | 256 (≈ 659 µM) | 2 (≈ 5.15 µM) | 128 (≈ 330 µM) | 256 (≈ 659 µM) | 256 (≈ 659 µM) | 16 (≈ 41.2 µM)
8 | CCOC(=O)c1cn(Cc2ccc([N+](=O)[O-])cc2)c2cc(C(C#N)C(=O)OCC)c(F)cc2c1=O.[Na+] (centres undefined) | 256 | 128 | 1 | 64 | 32 | 128 | 0.5 | 128 | 128 | 64 | 128
9 | CCOC(=O)c1cn(Cc2cccc(Cl)c2)c2cc(F)c(F)cc2c1=O | 256 (≈ 678 µM) | 64 (≈ 169 µM) | 64 (≈ 169 µM) | 128 (≈ 339 µM) | 2 (≈ 5.29 µM) | 32 (≈ 84.7 µM) | 1 (≈ 2.65 µM) | 64 (≈ 169 µM) | 256 (≈ 678 µM) | 32 (≈ 84.7 µM) | 4 (≈ 10.6 µM)
10 | CCOC(=O)c1cn(CC2CCCCC2)c2cc(F)c(F)cc2c1=O | 128 (≈ 366 µM) | 16 (≈ 45.8 µM) | 2 (≈ 5.72 µM) | 64 (≈ 183 µM) | 128 (≈ 366 µM) | 8 (≈ 22.9 µM) | 4 (≈ 11.4 µM) | 128 (≈ 366 µM) | 64 (≈ 183 µM) | 256 (≈ 733 µM) | 256 (≈ 733 µM)
11 | CCOC(=O)c1cn(CC(N)=O)c2cc([C-](C#N)C(=O)OCC)c(F)cc2c1=O.[Na+] (centres undefined) | 256 | 256 | 256 | 256 | 256 | 256 | 256 | 256 | 256 | 256 | 256
12 | CCCCCCCCCCCCn1cc(C(=O)OCC)c(=O)c2cc(F)c(F)cc21 | 256 (≈ 607 µM) | 32 (≈ 75.9 µM) | 128 (≈ 304 µM) | 32 (≈ 75.9 µM) | 64 (≈ 152 µM) | 16 (≈ 38 µM) | 16 (≈ 38 µM) | 64 (≈ 152 µM) | 64 (≈ 152 µM) | 256 (≈ 607 µM) | 64 (≈ 152 µM)
13 | CCOC(=O)c1cn(C2CC2)c2cc([C-](C#N)C(=O)OCC)c(F)cc2c1=O.[Na+] (centres undefined) | 16 | 32 | 8 | 32 | 16 | 16 | 16 | 32 | 32 | 16 | 32
14 | CCOC(=O)c1cn(CC2CCCCC2)c2cc(C(C#N)C(=O)OCC)c(F)cc2c1=O (centres undefined) | 64 (≈ 145 µM) | 64 (≈ 145 µM) | 1 (≈ 2.26 µM) | 4 (≈ 9.04 µM) | 16 (≈ 36.2 µM) | 4 (≈ 9.04 µM) | 4 (≈ 9.04 µM) | 0.5 (≈ 1.13 µM) | 1 (≈ 2.26 µM) | 1 (≈ 2.26 µM) | 4 (≈ 9.04 µM)

Source: ChEMBL document CHEMBL5528028, “Discovery of benzopyridone cyanoacetates as new type of potential broad-spectrum antibacterial candidates” (Eur J Med Chem, 2024)
